Measurements taken from PubChem BioAssay (NCI).
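Where inhibition never reached the appropriate level, the endpoint shown equals the highest concentration tested. Otherwise, values were interpolated linearly from a five-concentration, 48-hour dose response in 96-well plates. Here, GI50 denotes the concentration required for 50% inhibition of growth. TGI is the concentration that stops growth completely.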

Experiments:
Assay in all cases: DTP human tumour cell line panel, 48 h
HOP-62 NSCLC = test system: HOP-62 NSCLC
MCF7 breast = test system: MCF7 breast
OVCAR-3 ovarian = test system: OVCAR-3 ovarian
TK-10 renal = test system: TK-10 renal
LOX IMVI melanoma = test system: LOX IMVI melanoma
MDA-MB-231 breast = test system: MDA-MB-231 breast
OVCAR-4 ovarian = test system: OVCAR-4 ovarian
NCI-H226 lung = test system: NCI-H226 lung
NCI-H23 lung = test system: NCI-H23 lung
HT29 colon = test system: HT29 colon
SK-MEL-2 melanoma = test system: SK-MEL-2 melanoma
A549 NSCLC = test system: A549 NSCLC
K-562 leukemia = test system: K-562 leukemia
SK-OV-3 ovarian = test system: SK-OV-3 ovarian
UO-31 renal = test system: UO-31 renal
SR leukemia = test system: SR leukemia
A498 renal = test system: A498 renal
UACC-257 melanoma = test system: UACC-257 melanoma
HL-60(TB) leukemia = test system: HL-60(TB) leukemia
SK-MEL-5 melanoma = test system: SK-MEL-5 melanoma
SF-268 CNS = test system: SF-268 CNS
CAKI-1 renal = test system: CAKI-1 renal
MOLT-4 leukemia = test system: MOLT-4 leukemia
MDA-MB-468 breast = test system: MDA-MB-468 breast
RXF 393 renal = test system: RXF 393 renal
HCC-2998 colon = test system: HCC-2998 colon
OVCAR-8 ovarian = test system: OVCAR-8 ovarian
SN12C renal = test system: SN12C renal
T-47D breast = test system: T-47D breast
U251 CNS = test system: U251 CNS
786-0 renal = test system: 786-0 renal
RPMI-8226 leukemia = test system: RPMI-8226 leukemia
SK-MEL-28 melanoma = test system: SK-MEL-28 melanoma
KM12 colon = test system: KM12 colon
HCT-15 colon = test system: HCT-15 colon
PC-3 prostate = test system: PC-3 prostate
UACC-62 melanoma = test system: UACC-62 melanoma
SNB-75 CNS = test system: SNB-75 CNS
NCI-H522 lung = test system: NCI-H522 lung
IGROV1 ovarian = test system: IGROV1 ovarian
NCI-H460 lung = test system: NCI-H460 lung
BT-549 breast = test system: BT-549 breast
EKVX NSCLC = test system: EKVX NSCLC
HCT-116 colon = test system: HCT-116 colon
DU-145 prostate = test system: DU-145 prostate
HS 578T breast = test system: HS 578T breast
NCI/ADR-RES ovarian = test system: NCI/ADR-RES ovarian
M14 melanoma = test system: M14 melanoma
CCRF-CEM leukemia = test system: CCRF-CEM leukemia
COLO 205 colon = test system: COLO 205 colon
ACHN renal = test system: ACHN renal
SNB-19 CNS = test system: SNB-19 CNS
SF-295 CNS = test system: SF-295 CNS
SF-539 CNS = test system: SF-539 CNS
SW-620 colon = test system: SW-620 colon
MALME-3M melanoma = test system: MALME-3M melanoma
OVCAR-5 ovarian = test system: OVCAR-5 ovarian
HOP-92 NSCLC = test system: HOP-92 NSCLC
MDA-MB-435 = test system: MDA-MB-435

O=C(c1ccc(O)cc1)C1[C@H](c2ccc(Cl)cc2)[C@@H](c2ccccc2)NC12C(=O)Nc1ccc(Br)cc12 (stereo partly drawn)
GI50 (HOP-62 NSCLC): 13.9 µM | TGI (HOP-62 NSCLC): 27.5 µM | GI50 (MCF7 breast): 12.2 µM | TGI (MCF7 breast): 25.7 µM | GI50 (OVCAR-3 ovarian): 13.8 µM | TGI (OVCAR-3 ovarian): 28 µM | GI50 (TK-10 renal): 13.8 µM | TGI (TK-10 renal): 27 µM | GI50 (LOX IMVI melanoma): 14 µM | TGI (LOX IMVI melanoma): 27 µM | GI50 (MDA-MB-231 breast): 13.1 µM | TGI (MDA-MB-231 breast): 26 µM | GI50 (OVCAR-4 ovarian): 14.3 µM | TGI (OVCAR-4 ovarian): 28.1 µM | GI50 (NCI-H226 lung): 13.6 µM | TGI (NCI-H226 lung): 28.9 µM | GI50 (NCI-H23 lung): 15.1 µM | TGI (NCI-H23 lung): 29.2 µM | GI50 (HT29 colon): 14 µM | TGI (HT29 colon): 27.9 µM | GI50 (SK-MEL-2 melanoma): 14.4 µM | TGI (SK-MEL-2 melanoma): 28.3 µM | GI50 (A549 NSCLC): 11.8 µM | TGI (A549 NSCLC): 25.9 µM | GI50 (K-562 leukemia): 14.3 µM | TGI (K-562 leukemia): 43.5 µM | GI50 (SK-OV-3 ovarian): 14.9 µM | TGI (SK-OV-3 ovarian): 28.3 µM | GI50 (UO-31 renal): 10.6 µM | TGI (UO-31 renal): 22.4 µM | GI50 (SR leukemia): 10.6 µM | TGI (SR leukemia): 26.2 µM | GI50 (A498 renal): 13.8 µM | TGI (A498 renal): 27 µM | GI50 (UACC-257 melanoma): 14.8 µM | TGI (UACC-257 melanoma): 28.6 µM | GI50 (HL-60(TB) leukemia): 20.4 µM | TGI (HL-60(TB) leukemia): 46.5 µM | GI50 (SK-MEL-5 melanoma): 15.7 µM | TGI (SK-MEL-5 melanoma): 29.1 µM | GI50 (SF-268 CNS): 14.4 µM | TGI (SF-268 CNS): 31 µM | GI50 (CAKI-1 renal): 10.8 µM | TGI (CAKI-1 renal): 23.4 µM | GI50 (MOLT-4 leukemia): 11.6 µM | TGI (MOLT-4 leukemia): 32.2 µM | GI50 (MDA-MB-468 breast): 8.82 µM | TGI (MDA-MB-468 breast): 21.3 µM | GI50 (RXF 393 renal): 13 µM | TGI (RXF 393 renal): 26.3 µM | GI50 (HCC-2998 colon): 14.1 µM | TGI (HCC-2998 colon): 27.3 µM | GI50 (OVCAR-8 ovarian): 15.5 µM | TGI (OVCAR-8 ovarian): 30.7 µM | GI50 (SN12C renal): 14.7 µM | TGI (SN12C renal): 28.4 µM | GI50 (T-47D breast): 11.7 µM | TGI (T-47D breast): 24.1 µM | GI50 (U251 CNS): 15 µM | TGI (U251 CNS): 29.6 µM | GI50 (786-0 renal): 1.64 µM | TGI (786-0 renal): 3 µM | GI50 (RPMI-8226 leukemia): 23.6 µM | TGI (RPMI-8226 leukemia): 69.2 µM | GI50 (SK-MEL-28 melanoma): 16.3 µM | TGI (SK-MEL-28 melanoma): 30 µM | GI50 (KM12 colon): 13.4 µM | TGI (KM12 colon): 29.5 µM | GI50 (HCT-15 colon): 13.6 µM | TGI (HCT-15 colon): 26.8 µM | GI50 (PC-3 prostate): 12.3 µM | TGI (PC-3 prostate): 25.9 µM | GI50 (UACC-62 melanoma): 11.8 µM | TGI (UACC-62 melanoma): 24.1 µM | GI50 (SNB-75 CNS): 10.8 µM | TGI (SNB-75 CNS): 26.2 µM | GI50 (NCI-H522 lung): 13.3 µM | TGI (NCI-H522 lung): 26.6 µM | GI50 (IGROV1 ovarian): 12.1 µM | TGI (IGROV1 ovarian): 24.8 µM | GI50 (NCI-H460 lung): 14.7 µM | TGI (NCI-H460 lung): 28.8 µM | GI50 (BT-549 breast): 16.3 µM | TGI (BT-549 breast): 30 µM | GI50 (EKVX NSCLC): 11 µM | TGI (EKVX NSCLC): 23.2 µM | GI50 (HCT-116 colon): 12.6 µM | TGI (HCT-116 colon): 25.1 µM | GI50 (DU-145 prostate): 16.6 µM | TGI (DU-145 prostate): 31.6 µM | GI50 (HS 578T breast): 15.2 µM | TGI (HS 578T breast): 38.2 µM | GI50 (NCI/ADR-RES ovarian): 16.6 µM | TGI (NCI/ADR-RES ovarian): 31.5 µM | GI50 (M14 melanoma): 12.8 µM | TGI (M14 melanoma): 25.5 µM | GI50 (CCRF-CEM leukemia): 18.9 µM | TGI (CCRF-CEM leukemia): 45 µM | GI50 (COLO 205 colon): 15.8 µM | TGI (COLO 205 colon): 30 µM | GI50 (ACHN renal): 12.6 µM | TGI (ACHN renal): 25.2 µM | GI50 (SNB-19 CNS): 14.6 µM | TGI (SNB-19 CNS): 27.7 µM | GI50 (SF-295 CNS): 12.4 µM | TGI (SF-295 CNS): 25 µM | GI50 (SF-539 CNS): 14.7 µM | TGI (SF-539 CNS): 28 µM | GI50 (SW-620 colon): 14.4 µM | TGI (SW-620 colon): 28.1 µM | GI50 (MALME-3M melanoma): 15.1 µM | TGI (MALME-3M melanoma): 28.8 µM | GI50 (OVCAR-5 ovarian): 13.7 µM | TGI (OVCAR-5 ovarian): 26.6 µM | GI50 (HOP-92 NSCLC): 14.2 µM | TGI (HOP-92 NSCLC): 28.6 µM | GI50 (MDA-MB-435): 16.2 µM | TGI (MDA-MB-435): 31.9 µM
